Data: PubChem BioAssay (NCI)
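Interpolation was linear, between the two tested concentrations surrounding the appropriate level; five concentrations were tested over 48 hours in 96-well plates. TGI is the concentration that stops growth completely.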

Columns and labels:
Test in all cases: NCI-60 cell line screen, 48 h
786-0 renal = test system: 786-0 renal
A498 renal = test system: A498 renal
A549 NSCLC = test system: A549 NSCLC
ACHN renal = test system: ACHN renal
COLO 205 colon = test system: COLO 205 colon
DLD-1 colon = test system: DLD-1 colon
DMS 114 small cell lung = test system: DMS 114 small cell lung
DMS 273 small cell lung = test system: DMS 273 small cell lung
EKVX NSCLC = test system: EKVX NSCLC
HCC-2998 colon = test system: HCC-2998 colon
HCT-116 colon = test system: HCT-116 colon
HCT-15 colon = test system: HCT-15 colon
HL-60(TB) leukemia = test system: HL-60(TB) leukemia
HOP-18 NSCLC = test system: HOP-18 NSCLC
HOP-62 NSCLC = test system: HOP-62 NSCLC
HOP-92 NSCLC = test system: HOP-92 NSCLC
HT29 colon = test system: HT29 colon
IGROV1 ovarian = test system: IGROV1 ovarian
K-562 leukemia = test system: K-562 leukemia
KM12 colon = test system: KM12 colon
KM20L2 colon = test system: KM20L2 colon
LOX IMVI melanoma = test system: LOX IMVI melanoma
LXFL 529 NSCLC = test system: LXFL 529 NSCLC
M14 melanoma = test system: M14 melanoma
M19-MEL melanoma = test system: M19-MEL melanoma
MALME-3M melanoma = test system: MALME-3M melanoma
NCI-H23 lung = test system: NCI-H23 lung
NCI-H460 lung = test system: NCI-H460 lung
NCI-H522 lung = test system: NCI-H522 lung
OVCAR-3 ovarian = test system: OVCAR-3 ovarian
OVCAR-4 ovarian = test system: OVCAR-4 ovarian
OVCAR-5 ovarian = test system: OVCAR-5 ovarian
OVCAR-8 ovarian = test system: OVCAR-8 ovarian
RPMI-8226 leukemia = test system: RPMI-8226 leukemia
RXF 393 renal = test system: RXF 393 renal
RXF-631 renal = test system: RXF-631 renal
SF-268 CNS = test system: SF-268 CNS
SF-295 CNS = test system: SF-295 CNS
SF-539 CNS = test system: SF-539 CNS
SK-MEL-2 melanoma = test system: SK-MEL-2 melanoma
SK-MEL-28 melanoma = test system: SK-MEL-28 melanoma
SK-MEL-5 melanoma = test system: SK-MEL-5 melanoma
SK-OV-3 ovarian = test system: SK-OV-3 ovarian
SN12C renal = test system: SN12C renal
SNB-19 CNS = test system: SNB-19 CNS
SNB-75 CNS = test system: SNB-75 CNS
SNB-78 CNS = test system: SNB-78 CNS
SR leukemia = test system: SR leukemia
SW-620 colon = test system: SW-620 colon
TK-10 renal = test system: TK-10 renal
U251 CNS = test system: U251 CNS
UACC-257 melanoma = test system: UACC-257 melanoma
UACC-62 melanoma = test system: UACC-62 melanoma
UO-31 renal = test system: UO-31 renal
CAKI-1 renal = test system: CAKI-1 renal
CCRF-CEM leukemia = test system: CCRF-CEM leukemia
MOLT-4 leukemia = test system: MOLT-4 leukemia
NCI-H226 lung = test system: NCI-H226 lung
XF 498 CNS = test system: XF 498 CNS

Measured: TGI

CCOC(=O)NC(=O)c1cn(CCOCCOC(=O)NCCCCCCNC(=O)OCCOCCn2cc(C(=O)NC(=O)OCC)c(=O)[nH]c2=O)c(=O)[nH]c1=O
not listed: CAKI-1 renal | CCRF-CEM leukemia | MOLT-4 leukemia | NCI-H226 lung | XF 498 CNS
> 100 µM: all other assays above

CC1(n2nc(-c3ccccc3)n(-c3ccccc3)c2=O)CSC1
not listed: HOP-18 NSCLC | MALME-3M melanoma | OVCAR-3 ovarian | RXF-631 renal
> 100 µM: all other assays above

NC1=NN(c2ccccc2)C(=O)C1C(=O)CCC(=O)Nc1cccc(C(F)(F)F)c1 (stereo not given)
not listed: A498 renal | NCI-H522 lung | RPMI-8226 leukemia | SNB-75 CNS | XF 498 CNS
> 100 µM: all other assays above

COc1ccc2c(c1)CCC1C3(CCCC21C)OCCO3 (stereo not given)
19.9 µM: SF-268 CNS
61.2 µM: RPMI-8226 leukemia
60.3 µM: SNB-75 CNS
36.3 µM: M14 melanoma
35.7 µM: NCI-H226 lung
38.1 µM: 786-0 renal
44.9 µM: LXFL 529 NSCLC
40.8 µM: SF-295 CNS
37.7 µM: M19-MEL melanoma
40.6 µM: CCRF-CEM leukemia
58.8 µM: MALME-3M melanoma
73.9 µM: SNB-78 CNS
50.4 µM: OVCAR-8 ovarian
29.4 µM: U251 CNS
26.3 µM: SF-539 CNS
60.9 µM: SK-OV-3 ovarian
39.2 µM: KM20L2 colon
46.3 µM: NCI-H460 lung
40.3 µM: DMS 273 small cell lung
33.5 µM: HT29 colon
30.4 µM: LOX IMVI melanoma
82.3 µM: EKVX NSCLC
82.6 µM: A498 renal
31 µM: UO-31 renal
30.5 µM: HCT-116 colon | SN12C renal
31.1 µM: RXF 393 renal | SK-MEL-5 melanoma
64.8 µM: HOP-18 NSCLC
35.5 µM: OVCAR-3 ovarian
38 µM: UACC-62 melanoma
35.4 µM: COLO 205 colon
44.3 µM: HCC-2998 colon
43.2 µM: HL-60(TB) leukemia
45.4 µM: SR leukemia
78.9 µM: ACHN renal
42.1 µM: K-562 leukemia
69.7 µM: A549 NSCLC
23.5 µM: SK-MEL-2 melanoma
34.5 µM: DLD-1 colon
51.7 µM: KM12 colon
79.4 µM: IGROV1 ovarian
62.1 µM: UACC-257 melanoma
53.5 µM: MOLT-4 leukemia
28.4 µM: HOP-62 NSCLC
37.4 µM: NCI-H522 lung
34.2 µM: HCT-15 colon | NCI-H23 lung
35.3 µM: HOP-92 NSCLC | SK-MEL-28 melanoma
96.2 µM: SW-620 colon
not listed: DMS 114 small cell lung | XF 498 CNS
> 100 µM: all other assays above
